In experiment [1] the test system is PC-6. Nature of the experiment: Growth inhibition of 50% of human small cell lung cancer (PC-6) cell line in MTT assay. The experiment is classed as functional. (Formazan colour is commonly taken as a measure of viable cells.)
Experiment [2] has as its system PC-6. Nature of the experiment: Growth inhibition of 50% of vincristine-resistant cell line expressing P-glycoprotein (PC-6/VCR) in MTT assay. As to conditions: Homo sapiens. The experiment is classed as functional.

≈ marks a conversion by molar mass, not a printed value.

Take `CC(=O)O[C@@]12CO[C@@H]1C[C@H](O)[C@@]1(C)[C@H](O)[C@H](O)C3=C(C)[C@@H](OC(=O)[C@H](O)[C@@H](NC(=O)OC(C)(C)C)c4ccco4)C[C@@](O)([C@@H](OC(=O)c4ccccc4)[C@H]21)C3(C)C`: the figures for the GI50 in experiment [1] and in experiment [2] were 21 ng/mL (≈ 26.3 nM) and 422 ng/mL (≈ 528 nM), respectively.

On to `CC(=O)O[C@@]12CO[C@@H]1C[C@H](O)[C@@]1(C)[C@@H]3OC(C)(C)O[C@@H]3C3=C(C)[C@@H](OC(=O)[C@H](O)[C@@H](NC(=O)OC(C)(C)C)c4ccco4)C[C@@](O)([C@@H](OC(=O)c4ccccc4)[C@H]21)C3(C)C`, for which the concentration for 50% growth inhibition (GI50) in experiment [1] worked out at 0.331 ng/mL (≈ 0.394 nM); in experiment [2], 1.88 ng/mL (≈ 2.24 nM).

Regarding `C=CC1O[C@@H]2C3=C(C)[C@@H](OC(=O)[C@H](O)[C@@H](NC(=O)OC(C)(C)C)c4ccccc4)C[C@@](O)([C@@H](OC(=O)c4ccccc4)[C@@H]4[C@]5(OC(C)=O)CO[C@@H]5C[C@H](O)[C@@]4(C)[C@@H]2O1)C3(C)C` (stereo not given in full), the GI50 turned out to be 0.365 ng/mL (≈ 0.43 nM) in experiment [1] and 4.64 ng/mL (≈ 5.47 nM) in experiment [2].

Consider `C=CC1O[C@@H]2C3=C(C)[C@@H](OC(=O)[C@H](O)[C@@H](NC(=O)OC(C)(C)C)c4ccco4)C[C@@](O)([C@@H](OC(=O)c4ccccc4)[C@@H]4[C@]5(OC(C)=O)CO[C@@H]5C[C@H](O)[C@@]4(C)[C@@H]2O1)C3(C)C` (stereo not given in full), for which the GI50 in experiment [1] turned out to be 0.743 ng/mL (≈ 0.887 nM); in experiment [2], 1.27 ng/mL (≈ 1.52 nM).

`COc1ccc(C2O[C@@H]3C4=C(C)[C@@H](OC(=O)[C@H](O)[C@@H](NC(=O)OC(C)(C)C)c5ccco5)C[C@@](O)([C@@H](OC(=O)c5ccccc5)[C@@H]5[C@]6(OC(C)=O)CO[C@@H]6C[C@H](O)[C@@]5(C)[C@@H]3O2)C4(C)C)cc1` (stereo not given in full): the figures for the 50% growth inhibitory concentration (GI50) in experiment [1] and in experiment [2] were 6.26 ng/mL (≈ 6.82 nM) and 9.25 ng/mL (≈ 10.1 nM), respectively.

A word on the GI50: it is the concentration giving 50% growth inhibition.

(Values after ChEMBL document CHEMBL1135270, “New highly active taxoids from 9 beta-dihydrobaccatin-9,10-acetals” (2002).)
